Experimental data as given in ChEMBL document CHEMBL3627674, “Discovery of wrightiadione as a novel template for the TrkA kinase inhibitors” (Bioorg Med Chem Lett, 2015).

Key:
[1] = target: cAMP-dependent protein kinase catalytic subunit alpha (Homo sapiens) (UniProt P17612); experiment: Inhibition of PKAC-alpha (unknown origin) assessed as remaining activity at 10 uM by high-throughput assay relative to control
[2] = target: Inhibitor of nuclear factor kappa-B kinase subunit alpha (Homo sapiens) (UniProt O15111); experiment: Inhibition of IKK-alpha (unknown origin) assessed as remaining activity at 10 uM by high-throughput assay relative to control
[3] = target: Dual specificity mitogen-activated protein kinase kinase 1 (Homo sapiens) (UniProt Q02750); experiment: Inhibition of MEK1 (unknown origin) assessed as remaining activity at 10 uM by high-throughput assay relative to control
[4] = target: Fibroblast growth factor receptor 2 (Homo sapiens) (UniProt P21802); experiment: Inhibition of FGFR2 (unknown origin) assessed as remaining activity at 10 uM by high-throughput assay relative to control
[5] = target: Phosphatidylinositol 4-phosphate 3-kinase C2 domain-containing subunit beta (Homo sapiens) (UniProt O00750); experiment: Inhibition of PIK3C2B (unknown origin) assessed as remaining activity at 10 uM by high-throughput assay relative to control
[6] = target: Tyrosine-protein kinase JAK2 (Homo sapiens) (UniProt O60674); experiment: Inhibition of JAK2 JH1 catalytic domain (unknown origin) assessed as remaining activity at 10 uM by high-throughput assay relative to control
[7] = target: Insulin receptor (Homo sapiens) (UniProt P06213); experiment: Inhibition of INSR (unknown origin) assessed as remaining activity at 10 uM by high-throughput assay relative to control
[8] = target: Activin receptor type-1B (Homo sapiens) (UniProt P36896); experiment: Inhibition of ACVR1B (unknown origin) assessed as remaining activity at 10 uM by high-throughput assay relative to control
[9] = target: Mitogen-activated protein kinase 9 (Homo sapiens) (UniProt P45984); experiment: Inhibition of JNK2 (unknown origin) assessed as remaining activity at 10 uM by high-throughput assay relative to control
[10] = target: Ephrin type-A receptor 2 (Homo sapiens) (UniProt P29317); experiment: Inhibition of EPHA2 (unknown origin) assessed as remaining activity at 10 uM by high-throughput assay relative to control
[11] = tested on: Serine/threonine-protein kinase B-raf (Homo sapiens), P15056 [V600E]; experiment: Inhibition of BRAF V600E mutant (unknown origin) assessed as remaining activity at 10 uM by high-throughput assay relative to control
[12] = target: Inhibitor of nuclear factor kappa-B kinase subunit beta (Homo sapiens) (UniProt O14920); experiment: Inhibition of IKK-beta (unknown origin) assessed as remaining activity at 10 uM by high-throughput assay relative to control
[13] = target: Serine/threonine-protein kinase PLK3 (Homo sapiens, UniProt Q9H4B4); experiment: Inhibition of PLK3 (unknown origin) assessed as remaining activity at 10 uM by high-throughput assay relative to control
[14] = target: Receptor tyrosine-protein kinase erbB-2 (Homo sapiens) (UniProt P04626); experiment: Inhibition of ERBB2 (unknown origin) assessed as remaining activity at 10 uM by high-throughput assay relative to control
[15] = target: Mitogen-activated protein kinase 10 (Homo sapiens) (UniProt P53779); experiment: Inhibition of JNK3 (unknown origin) assessed as remaining activity at 10 uM by high-throughput assay relative to control
[16] = tested on: Mast/stem cell growth factor receptor Kit (Homo sapiens), P10721 [D816V]; experiment: Inhibition of KIT D816V mutant (unknown origin) assessed as remaining activity at 10 uM by high-throughput assay relative to control
[17] = target: Serine/threonine-protein kinase 32C (Homo sapiens) (UniProt Q86UX6); experiment: Inhibition of YANK3 (unknown origin) assessed as remaining activity at 10 uM by high-throughput assay relative to control
[18] = target: 3-phosphoinositide-dependent protein kinase 1 (Homo sapiens) (UniProt O15530); experiment: Inhibition of PDPK1 (unknown origin) assessed as remaining activity at 10 uM by high-throughput assay relative to control
[19] = target: Proto-oncogene tyrosine-protein kinase Src (Homo sapiens) (UniProt P12931); experiment: Inhibition of SRC (unknown origin) assessed as remaining activity at 10 uM by high-throughput assay relative to control
[20] = target: Serine/threonine-protein kinase PAK 4 (Homo sapiens) (UniProt O96013); experiment: Inhibition of PAK4 (unknown origin) assessed as remaining activity at 10 uM by high-throughput assay relative to control
[21] = target: Tyrosine-protein kinase ZAP-70 (Homo sapiens) (UniProt P43403); experiment: Inhibition of ZAP70 (unknown origin) assessed as remaining activity at 10 uM by high-throughput assay relative to control
[22] = target: Tyrosine-protein kinase JAK3 (Homo sapiens) (UniProt P52333); experiment: Inhibition of JAK3 JH1 catalytic domain (unknown origin) assessed as remaining activity at 10 uM by high-throughput assay relative to control
[23] = target: Mitogen-activated protein kinase kinase kinase 9 (Homo sapiens) (UniProt P80192); experiment: Inhibition of MLK1 (unknown origin) assessed as remaining activity at 10 uM by high-throughput assay relative to control
[24] = target: Serine/threonine-protein kinase ULK2 (Homo sapiens) (UniProt Q8IYT8); experiment: Inhibition of ULK2 (unknown origin) assessed as remaining activity at 10 uM by high-throughput assay relative to control
[25] = target: Tyrosine-protein kinase BTK (Homo sapiens) (UniProt Q06187); experiment: Inhibition of BTK (unknown origin) assessed as remaining activity at 10 uM by high-throughput assay relative to control
[26] = target: Protein kinase C epsilon type (Homo sapiens) (UniProt Q02156); experiment: Inhibition of PRKCE (unknown origin) assessed as remaining activity at 10 uM by high-throughput assay relative to control
[27] = target: Fibroblast growth factor receptor 3 (Homo sapiens) (UniProt P22607); experiment: Inhibition of FGFR3 (unknown origin) assessed as remaining activity at 10 uM by high-throughput assay relative to control
[28] = target: Serine/threonine-protein kinase pim-3 (Homo sapiens) (UniProt Q86V86); experiment: Inhibition of PIM3 (unknown origin) assessed as remaining activity at 10 uM by high-throughput assay relative to control
[29] = tested on: Epidermal growth factor receptor (Homo sapiens), P00533 [L858R]; experiment: Inhibition of EGFR L858R mutant (unknown origin) assessed as remaining activity at 10 uM by high-throughput assay relative to control; assay type: protein assay
[30] = target: Mitogen-activated protein kinase 11 (Homo sapiens) (UniProt Q15759); experiment: Inhibition of p38-beta (unknown origin) assessed as remaining activity at 10 uM by high-throughput assay relative to control
[31] = target: Aurora kinase A (Homo sapiens) (UniProt O14965); experiment: Inhibition of AURKA (unknown origin) assessed as remaining activity at 10 uM by high-throughput assay relative to control
[32] = target: Mitogen-activated protein kinase 14 (Homo sapiens) (UniProt Q16539); experiment: Inhibition of p38-alpha (unknown origin) assessed as remaining activity at 10 uM by high-throughput assay relative to control

Chain of Aurora kinase A (Homo sapiens) (O14965 whole entry): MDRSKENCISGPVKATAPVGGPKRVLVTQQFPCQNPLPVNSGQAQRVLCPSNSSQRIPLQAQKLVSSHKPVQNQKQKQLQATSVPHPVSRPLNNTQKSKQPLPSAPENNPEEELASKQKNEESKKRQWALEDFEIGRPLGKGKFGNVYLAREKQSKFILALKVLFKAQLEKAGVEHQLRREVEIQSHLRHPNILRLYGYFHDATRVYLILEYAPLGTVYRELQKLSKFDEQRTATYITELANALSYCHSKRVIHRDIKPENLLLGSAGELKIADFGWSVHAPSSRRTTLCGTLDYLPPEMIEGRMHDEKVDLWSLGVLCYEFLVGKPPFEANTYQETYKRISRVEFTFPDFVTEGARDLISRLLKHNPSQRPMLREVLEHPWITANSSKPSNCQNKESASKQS
Chain of Protein kinase C epsilon type (Homo sapiens) (Q02156 whole entry): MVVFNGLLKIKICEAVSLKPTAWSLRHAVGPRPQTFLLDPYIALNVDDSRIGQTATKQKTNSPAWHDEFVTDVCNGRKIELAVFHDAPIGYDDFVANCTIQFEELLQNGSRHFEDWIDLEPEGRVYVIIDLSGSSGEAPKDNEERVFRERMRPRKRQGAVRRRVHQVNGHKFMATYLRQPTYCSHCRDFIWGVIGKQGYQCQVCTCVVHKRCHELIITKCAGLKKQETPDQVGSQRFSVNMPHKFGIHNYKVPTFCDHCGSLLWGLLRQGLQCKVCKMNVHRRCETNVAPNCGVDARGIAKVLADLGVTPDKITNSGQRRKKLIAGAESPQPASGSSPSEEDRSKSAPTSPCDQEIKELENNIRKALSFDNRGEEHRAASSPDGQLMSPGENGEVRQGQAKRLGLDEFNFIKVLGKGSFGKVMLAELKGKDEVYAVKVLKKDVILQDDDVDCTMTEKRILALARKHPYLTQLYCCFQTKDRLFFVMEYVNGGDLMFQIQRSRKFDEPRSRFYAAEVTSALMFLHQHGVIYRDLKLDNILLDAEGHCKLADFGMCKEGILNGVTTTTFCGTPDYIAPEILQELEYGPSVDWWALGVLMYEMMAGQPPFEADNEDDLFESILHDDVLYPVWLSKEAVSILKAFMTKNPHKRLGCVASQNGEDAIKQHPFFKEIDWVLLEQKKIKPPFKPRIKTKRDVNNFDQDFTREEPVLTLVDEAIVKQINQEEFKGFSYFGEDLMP
Chain of Inhibitor of nuclear factor kappa-B kinase subunit alpha (Homo sapiens) (O15111 whole entry): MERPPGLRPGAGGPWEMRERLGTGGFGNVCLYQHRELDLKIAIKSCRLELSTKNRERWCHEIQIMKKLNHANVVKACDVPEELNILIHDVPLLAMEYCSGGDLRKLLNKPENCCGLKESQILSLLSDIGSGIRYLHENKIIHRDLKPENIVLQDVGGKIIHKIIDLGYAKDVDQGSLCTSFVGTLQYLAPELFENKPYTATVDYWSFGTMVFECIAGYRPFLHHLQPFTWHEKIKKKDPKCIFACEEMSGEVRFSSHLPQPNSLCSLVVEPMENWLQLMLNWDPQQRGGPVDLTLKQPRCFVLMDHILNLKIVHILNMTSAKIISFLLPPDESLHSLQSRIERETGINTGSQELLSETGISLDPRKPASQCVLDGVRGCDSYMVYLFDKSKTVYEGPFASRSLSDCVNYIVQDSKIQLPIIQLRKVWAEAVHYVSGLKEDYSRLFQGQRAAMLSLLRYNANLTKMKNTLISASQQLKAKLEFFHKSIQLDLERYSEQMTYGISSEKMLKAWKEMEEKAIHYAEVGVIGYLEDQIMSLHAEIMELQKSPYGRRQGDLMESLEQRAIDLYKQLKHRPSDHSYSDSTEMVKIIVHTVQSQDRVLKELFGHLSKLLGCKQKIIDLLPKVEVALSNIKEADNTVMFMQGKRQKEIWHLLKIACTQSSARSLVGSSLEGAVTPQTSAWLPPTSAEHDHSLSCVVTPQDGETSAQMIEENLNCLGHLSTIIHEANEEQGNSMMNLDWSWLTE
Chain of Mitogen-activated protein kinase 9 (Homo sapiens) (P45984 whole entry, looked up): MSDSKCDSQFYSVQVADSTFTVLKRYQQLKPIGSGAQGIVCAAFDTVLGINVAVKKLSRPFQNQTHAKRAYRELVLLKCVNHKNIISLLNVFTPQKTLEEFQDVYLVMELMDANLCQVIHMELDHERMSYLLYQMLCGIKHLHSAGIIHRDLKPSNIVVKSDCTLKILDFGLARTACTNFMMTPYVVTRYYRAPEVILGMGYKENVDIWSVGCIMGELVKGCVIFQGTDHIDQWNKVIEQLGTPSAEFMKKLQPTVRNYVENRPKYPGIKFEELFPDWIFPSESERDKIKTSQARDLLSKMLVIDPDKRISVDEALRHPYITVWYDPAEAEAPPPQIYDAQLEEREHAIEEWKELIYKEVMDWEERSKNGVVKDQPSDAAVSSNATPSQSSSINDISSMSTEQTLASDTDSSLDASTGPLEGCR
Chain of Mast/stem cell growth factor receptor Kit (Homo sapiens), P10721 [D816V] (P10721 whole entry D816V): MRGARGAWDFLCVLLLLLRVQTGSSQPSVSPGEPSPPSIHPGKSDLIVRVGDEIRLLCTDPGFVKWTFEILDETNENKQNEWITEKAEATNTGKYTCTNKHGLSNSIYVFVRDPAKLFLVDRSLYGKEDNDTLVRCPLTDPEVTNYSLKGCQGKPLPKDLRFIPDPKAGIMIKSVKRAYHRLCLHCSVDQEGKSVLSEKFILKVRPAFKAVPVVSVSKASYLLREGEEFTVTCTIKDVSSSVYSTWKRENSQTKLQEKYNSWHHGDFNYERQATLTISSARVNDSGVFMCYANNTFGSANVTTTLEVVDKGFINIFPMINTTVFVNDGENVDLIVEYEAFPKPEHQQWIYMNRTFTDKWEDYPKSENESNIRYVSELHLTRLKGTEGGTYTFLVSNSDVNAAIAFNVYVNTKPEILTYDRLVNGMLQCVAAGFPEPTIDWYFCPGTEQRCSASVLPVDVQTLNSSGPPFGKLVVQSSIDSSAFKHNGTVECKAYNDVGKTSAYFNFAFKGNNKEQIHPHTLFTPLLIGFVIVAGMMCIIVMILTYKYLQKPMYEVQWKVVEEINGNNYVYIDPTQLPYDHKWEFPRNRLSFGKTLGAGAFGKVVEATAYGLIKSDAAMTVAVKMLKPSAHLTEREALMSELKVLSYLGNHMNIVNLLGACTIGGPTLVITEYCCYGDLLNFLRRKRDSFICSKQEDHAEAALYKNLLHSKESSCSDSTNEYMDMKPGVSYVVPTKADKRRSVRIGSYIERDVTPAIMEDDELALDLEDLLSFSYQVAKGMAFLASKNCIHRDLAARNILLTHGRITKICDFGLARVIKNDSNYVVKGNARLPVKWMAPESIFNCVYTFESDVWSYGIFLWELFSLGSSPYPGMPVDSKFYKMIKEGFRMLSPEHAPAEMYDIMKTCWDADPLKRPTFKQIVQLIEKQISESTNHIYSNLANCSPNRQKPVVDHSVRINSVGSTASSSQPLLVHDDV
Chain of Receptor tyrosine-protein kinase erbB-2 (Homo sapiens) (P04626 whole entry): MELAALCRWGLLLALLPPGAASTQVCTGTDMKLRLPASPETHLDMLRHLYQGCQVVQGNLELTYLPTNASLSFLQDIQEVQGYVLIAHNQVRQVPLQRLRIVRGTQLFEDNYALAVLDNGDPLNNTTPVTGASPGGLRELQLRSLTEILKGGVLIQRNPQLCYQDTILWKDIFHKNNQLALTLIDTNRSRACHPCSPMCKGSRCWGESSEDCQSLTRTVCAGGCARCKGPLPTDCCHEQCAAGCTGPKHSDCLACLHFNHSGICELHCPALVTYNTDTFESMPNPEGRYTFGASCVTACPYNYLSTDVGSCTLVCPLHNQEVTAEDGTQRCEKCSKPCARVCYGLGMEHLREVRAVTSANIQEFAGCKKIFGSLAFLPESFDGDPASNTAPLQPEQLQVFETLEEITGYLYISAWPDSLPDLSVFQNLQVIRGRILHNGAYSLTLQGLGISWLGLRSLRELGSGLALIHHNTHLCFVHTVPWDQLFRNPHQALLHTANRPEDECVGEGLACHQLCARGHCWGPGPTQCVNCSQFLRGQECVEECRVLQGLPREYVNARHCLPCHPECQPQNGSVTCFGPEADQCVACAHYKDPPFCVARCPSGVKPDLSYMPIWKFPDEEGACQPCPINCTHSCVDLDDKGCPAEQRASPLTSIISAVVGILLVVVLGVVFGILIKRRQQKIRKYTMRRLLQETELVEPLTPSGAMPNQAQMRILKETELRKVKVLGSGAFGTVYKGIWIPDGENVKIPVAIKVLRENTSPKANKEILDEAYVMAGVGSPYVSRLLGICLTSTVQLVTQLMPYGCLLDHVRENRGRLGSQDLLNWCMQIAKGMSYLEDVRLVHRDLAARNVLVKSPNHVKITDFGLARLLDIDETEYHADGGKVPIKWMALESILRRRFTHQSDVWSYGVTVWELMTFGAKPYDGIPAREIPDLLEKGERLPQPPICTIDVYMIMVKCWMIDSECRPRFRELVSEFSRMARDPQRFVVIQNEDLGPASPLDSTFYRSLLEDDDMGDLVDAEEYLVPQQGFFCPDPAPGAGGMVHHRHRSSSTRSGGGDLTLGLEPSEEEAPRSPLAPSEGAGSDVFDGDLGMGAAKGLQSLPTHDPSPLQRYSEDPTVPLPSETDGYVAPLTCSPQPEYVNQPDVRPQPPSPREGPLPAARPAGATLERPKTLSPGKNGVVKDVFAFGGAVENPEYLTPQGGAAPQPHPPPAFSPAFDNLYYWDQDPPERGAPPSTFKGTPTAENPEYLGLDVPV
Chain of Activin receptor type-1B (Homo sapiens) (P36896 whole entry): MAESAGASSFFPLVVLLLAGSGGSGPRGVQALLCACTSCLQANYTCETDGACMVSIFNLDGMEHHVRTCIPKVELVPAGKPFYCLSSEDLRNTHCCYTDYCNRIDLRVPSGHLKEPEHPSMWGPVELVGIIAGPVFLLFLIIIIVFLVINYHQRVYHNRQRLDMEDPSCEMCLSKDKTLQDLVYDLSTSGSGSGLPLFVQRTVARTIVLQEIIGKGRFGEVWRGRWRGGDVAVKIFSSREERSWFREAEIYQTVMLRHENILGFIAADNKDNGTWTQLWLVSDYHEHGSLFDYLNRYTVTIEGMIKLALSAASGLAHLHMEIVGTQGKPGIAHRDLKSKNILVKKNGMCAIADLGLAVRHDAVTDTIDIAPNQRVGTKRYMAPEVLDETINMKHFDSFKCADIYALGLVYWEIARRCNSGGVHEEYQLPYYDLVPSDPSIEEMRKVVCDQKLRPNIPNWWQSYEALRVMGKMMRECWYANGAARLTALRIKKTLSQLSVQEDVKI

Compound: O=C1c2ccccc2-c2c1oc1ccccc1c2=O
- Activity [1]: 92%
- Activity [2]: 65%
- Activity [3]: 85%
- Activity [4]: 56%
- Activity [5]: 99%
- Activity [6]: 42%
- Activity [7]: 72%
- Activity [8]: 82%
- Activity [9]: 49%
- Activity [10]: 80%
- Activity [11]: 72%
- Activity [12]: 73%
- Activity [13]: 8.3%
- Activity [14]: 92%
- Activity [15]: 33%
- Activity [16]: 58%
- Activity [17]: 78%
- Activity [18]: 99%
- Activity [19]: 83%
- Activity [20]: 98%
- Activity [21]: 77%
- Activity [22]: 61%
- Activity [23]: 74%
- Activity [24]: 59%
- Activity [25]: 76%
- Activity [26]: 96%
- Activity [27]: 54%
- Activity [28]: 94%
- Activity [29]: 90%
- Activity [30]: 79%
- Activity [31]: 82%
- Activity [32]: 95%
